Values of other authors in patent US20140256822A1, “TRANSMUCOSAL DRUG DELIVERY SYSTEM” (priority 2013, published 2014).

Settings: at a pH of 6.8

Compound: CN1CCCC1c1cccnc1 (stereo not shown) [nicotine]
- nicotine in the free base form: about 10%
